The values below come from US7906655B2, “Hepatitis C virus inhibitors” (Bristol-Myers Squibb Company, priority 2008, dated 2011).

For orientation: EC50 means the midpoint of the concentration-response curve.

Some results are limits rather than exact numbers.

The test system of one experiment is HCV 1b genotype. The experiment in a line: HCV Replicon assay (HCV-neo replicon cells, wild-type). In kind it is cell-based. Particulars: HCV 1b genotype replicon; class symbols. A digest of the protocol: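 Assay used wild-type HCV genotype 1b replicon cells carrying neo, with luciferase reporter read-outs in some formats.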
Background: Replicon systems follow genome replication, usually without infectious particles.
In the case of `COC(=O)N[C@@H](C)C(=O)N1[C@@H]2C[C@@H]2C[C@H]1c1nc2cc(Oc3cccc(-c4ccc5[nH]c([C@@H]6C[C@H]7C[C@H]7N6C(=O)[C@H](C)NC(=O)OC)nc5c4)c3)ccc2[nH]1` [Example V2, methyl ((1S)-2-((1R,3S,5R)-3-(5-(3-((2-((1R,3S,5R)-2-(N-(methoxycarbonyl)-L-alanyl)-2-azabicyclo[3.1.0]hex-3-yl)-1H-benzimidazol-5-yl)oxy)phenyl)-1H-benzimidazol-2-yl)-2-azabicyclo[3.1.0]hex-2-yl)-1-methyl-2-oxoethyl) carbamate], the EC50 was below 4.57 nM.

For the compound `COC(=O)N[C@@H](C(=O)N1[C@@H]2C[C@@H]2C[C@H]1c1nc2cc(Oc3cccc(-c4ccc5[nH]c([C@@H]6C[C@H]7C[C@H]7N6C(=O)[C@H](NC(=O)OC)C(C)C)nc5c4)c3)ccc2[nH]1)C(C)C` [Example V3, methyl ((1R)-1-(((1R,3S,5R)-3-(5-(3-(2-((1R,3S,5R)-2-((2R)-2-((methoxycarbonyl)amino)-3-methylbutanoyl)-2-azabicyclo[3.1.0]hex-3-yl)-1H-benzimidazol-5-yl)phenoxy)-1H-benzimidazol-2-yl)-2-azabicyclo[3.1.0]hex-2-yl)carbonyl)-2-methylpropyl) carbamate], the EC50 was in the range of 4.57 to 99 nM.

Take `COC(=O)NC(C(=O)N1[C@@H]2C[C@@H]2C[C@H]1c1nc2cc(Oc3cccc(-c4ccc5[nH]c([C@@H]6C[C@H]7C[C@H]7N6C(=O)C(NC(=O)OC)c6ccccc6)nc5c4)c3)ccc2[nH]1)c1ccccc1` (stereo partly drawn) [Example V4, methyl (2-((1R,3S,5R)-3-(5-(3-((2-((1R,3S,5R)-2-(((methoxycarbonyl)amino)(phenyl)acetyl)-2-azabicyclo[3.1.0]hex-3-yl)-1H-benzimidazol-5-yl)oxy)phenyl)-1H-benzimidazol-2-yl)-2-azabicyclo[3.1.0]hex-2-yl)-2-oxo-1-phenylethyl) carbamate]: the EC50 was below 4.57 nM.

Regarding `COC(=O)NC(C(=O)N1[C@@H]2C[C@@H]2C[C@H]1c1nc2cc(Oc3cccc(-c4ccc5[nH]c([C@@H]6C[C@H]7C[C@H]7N6C(=O)C(NC(=O)OC)c6ccccc6)nc5c4)c3)ccc2[nH]1)c1ccccc1` (stereo partly drawn) [Example V5, methyl (2-((1R,3S,5R)-3-(5-(3-((2-((1R,3S,5R)-2-(((methoxycarobnyl)amino)phenyl)acetyl)-2-azabicyclo[3.1.0]hex-3-yl)-1H-benzimidazol-5-yl)oxy)phenyl)-1H-benzimidazol-2-yl)-2-azabicyclo[3.1.0]hex-2-yl)-2-oxo-1-phenylethyl) carbamate], the EC50 was below 4.57 nM.

With `COC(=O)N[C@@H](C(=O)N1[C@@H]2C[C@@H]2C[C@H]1c1nc2cc(-c3ccc(Oc4cccc5[nH]c([C@@H]6C[C@H]7C[C@H]7N6C(=O)[C@H](NC(=O)OC)C(C)C)nc45)cc3)ccc2[nH]1)C(C)C` [Example V7, methyl ((1R)-1-(((1R,3S,5R)-3-(4-(4-(2-((1R,3S,5R)-2-((2R)-2-(methoxycarbonyl)amino)-3-methylbutanoyl)-2-azabicyclo[3.1.0]hex-3-yl)-1H-benzimidazol-5-yl)phenoxy)-1H-benzimidazol-2-yl)-2-azabicyclo[3.1.0]hex-2-yl)carbonyl)-2-methylpropyl) carbamate], the EC50 fell in the range of 4.57 to 99 nM.

With `COC(=O)N[C@@H](C)C(=O)N1[C@@H]2C[C@@H]2C[C@H]1c1nc2cc(-c3ccc(Oc4cccc5[nH]c([C@@H]6C[C@H]7C[C@H]7N6C(=O)[C@H](C)NC(=O)OC)nc45)cc3)ccc2[nH]1` [Example V8, methyl ((1S)-2-((1R,3S,5R)-3-(5-(4-((2-((1R,3S,5R)-2-(N-(methoxycarbonyl)-L-alanyl)-2-azabicyclo[3.1.0]hex-3-yl)-1H-benzimidazol-4-yl)oxy)phenyl)-1H-benzimidazol-2-yl)-2-azabicyclo[3.1.0]hex-2-yl)-1-methyl-2-oxoethyl) carbamate], the EC50 was below 4.57 nM.

For the compound `COC(=O)NC(C(=O)N1[C@@H]2C[C@@H]2C[C@H]1c1nc2cc(-c3ccc(Oc4cccc5[nH]c([C@@H]6C[C@H]7C[C@H]7N6C(=O)C(NC(=O)OC)c6ccccc6)nc45)cc3)ccc2[nH]1)c1ccccc1` (stereo partly drawn) [Example V9, methyl (2-((1R,3S,5R)-3-(5-(4-((2-((1R,3S,5R)-2-(((methoxycarbonyl)amino)(phenyl)acetyl)-2-azabicyclo[3.1.0]hex-3-yl)-1H-benzimidazol-4-yl)oxy)phenyl)-1H-benzimidazol-2-yl)-2-azabicyclo[3.1.0]hex-2-yl)-2-oxo-1-phenylethyl) carbamate], the EC50 was below 4.57 nM.

As for `COC(=O)NC(C(=O)N1[C@@H]2C[C@@H]2C[C@H]1c1nc2cc(-c3ccc(Oc4cccc5[nH]c([C@@H]6C[C@H]7C[C@H]7N6C(=O)C(NC(=O)OC)c6ccccc6)nc45)cc3)ccc2[nH]1)c1ccccc1` (stereo partly drawn) [Example V10, methyl (2-((1R,3S,5R)-3-(5-(4-((2-((1R,3S,5R)-2-(((methoxycarbonyl)amino)(phenyl)acetyl)-2-azabicyclo[3.1.0]hex-3-yl)-1H-benzimidazol-4-yl)oxy)phenyl)-1H-benzimidazol-2-yl)-2-azabicyclo[3.1.0]hex-2-yl)-2-oxo-1-phenylethyl) carbamate], the EC50 is below 4.57 nM.

Staying with this experiment, now noted: Hepatitis C virus, HCV 1b genotype replicon; class symbols.
As for `COC(=O)N[C@H](C(=O)N1CCC[C@H]1c1nc2cc(C#CC#Cc3ccc4[nH]c([C@@H]5CCCN5C(=O)[C@@H](NC(=O)OC)C(C)C)nc4c3)ccc2[nH]1)C(C)C` [Example M57.1, Methyl((1S)-1-(((2S)-2-(5-(4-(2-((2S)-1-((2S)-2-((methoxycarbonyl)amino)-3-methylbutanoyl)-2-pyrrolidinyl)-1H-benzimidazol-5-yl)-1,3-butadiyn-1-yl)-1H-benzimidazol-2-yl)-1-pyrrolidinyl)carbonyl)-2-methylpropyl)carbamate], the EC50 is below 4.57 nM.

For the compound `COC(=O)N[C@H](C(=O)N1[C@@H]2C[C@@H]2C[C@H]1c1nc2cc(C#CC#Cc3ccc4[nH]c([C@@H]5C[C@H]6C[C@H]6N5C(=O)[C@@H](NC(=O)OC)C(C)C)nc4c3)ccc2[nH]1)C(C)C` [Example M57.2, Methyl((1S)-1-(((1R,3S,5R)-3-(5-(4-(2-((1R,3S,5R)-2-((2S)-2-((methoxycarbonyl)amino)-3-methylbutanoyl)-2-azabicyclo[3.1.0]hex-3-yl)-1H-benzimidazol-5-yl)-1,3-butadiyn-1-yl)-1H-benzimidazol-2-yl)-2-azabicyclo[3.1.0]hex-2-yl)carbonyl)-2-methylpropyl)carbamate], the EC50 was below 4.57 nM.

Turning to `COC(=O)N[C@H](C(=O)N1[C@@H]2C[C@@H]2C[C@H]1c1nc2cc(Oc3cccc(-c4ccc5[nH]c([C@@H]6C[C@H]7C[C@H]7N6C(=O)[C@@H](NC(=O)OC)C(C)C)nc5c4)c3)ccc2[nH]1)C(C)C` [Example V1, Methyl((1S)-1-(((1R,3S,5R)-3-(5-(3-(2-((1R,3S,5R)-2-((2S)-2-((methoxycarbonyl)amino)-3-methylbutanoyl)-2-azabicyclo[3.1.0]hex-3-yl)-1H-benzimidazol-5-yl)phenoxy)-1H-benzimidazol-2-yl)-2-azabicyclo[3.1.0]hex-2-yl)carbonyl)-2-methylpropyl)carbamate], the concentration for a half-maximal effect (EC50) was below 4.57 nM.

With `COC(=O)N[C@H](C(=O)N1[C@@H]2C[C@@H]2C[C@H]1c1nc2cc(-c3ccc(Oc4cccc5[nH]c([C@@H]6C[C@H]7C[C@H]7N6C(=O)[C@@H](NC(=O)OC)C(C)C)nc45)cc3)ccc2[nH]1)C(C)C` [Example V6, Methyl((1S)-1-(((1R,3S,5R)-3-(4-(4-(2-((1R,3S,5R)-2-((2S)-2-((methoxycarbonyl)amino)-3-methylbutanoyl)-2-azabicyclo[3.1.0]hex-3-yl)-1H-benzimidazol-5-yl)phenoxy)-1H-benzimidazol-2-yl)-2-azabicyclo[3.1.0]hex-2-yl)carbonyl)-2-methylpropyl)carbamate], the EC50 was below 4.57 nM.

Take `COC(=O)N[C@H](C(=O)N1CCC[C@H]1c1nc2cc(-c3ccc(Oc4cccc5[nH]c([C@@H]6CCCN6C(=O)[C@@H](NC(=O)OC)C(C)C)nc45)cc3)ccc2[nH]1)C(C)C` [Example V11, Methyl((1S)-1-(((2S)-2-(4-(4-(2-((2S)-1-((2S)-2-((methoxycarbonyl)amino)-3-methylbutanoyl)-2-pyrrolidinyl)-1H-benzimidazol-5-yl)phenoxy)-1H-benzimidazol-2-yl)-1-pyrrolidinyl)carbonyl)-2-methylpropyl)carbamate]: the EC50 was below 4.57 nM.

As for `COC(=O)N[C@H](C(=O)N1CCC[C@H]1c1nc2cc(Oc3ccc(-c4ccc5[nH]c([C@@H]6CCCN6C(=O)[C@@H](NC(=O)OC)C(C)C)nc5c4)cc3)ccc2[nH]1)C(C)C` [Example V12, Methyl((1S)-1-(((2S)-2-(5-(4-(2-((2S)-1-((2S)-2-((methoxycarbonyl)amino)-3-methylbutanoyl)-2-pyrrolidinyl)-1H-benzimidazol-5-yl)phenoxy)-1H-benzimidazol-2-yl)-1-pyrrolidinyl)carbonyl)-2-methylpropyl)carbamate], the EC50 is below 4.57 nM.

Regarding `C[C@](O)(C(=O)N1CCC[C@H]1c1nc2ccc(-c3ccc(-c4ccc5nc([C@@H]6CCCN6C(=O)[C@](C)(O)c6ccccc6)[nH]c5c4)o3)cc2[nH]1)c1ccccc1` [JG1, (2R,2′R)-1,1′-(2,5-furandiylbis(1H-benzimidazole-5,2-diyl(2S)-2,1-pyrrolidinediyl))bis(1-oxo-2-phenyl-2-propanol)], the EC50 is 4.57 to 99 nM.

In the case of `O=C([C@H](O)c1ccccc1)N1CCC[C@H]1c1nc2cc(-c3ccc(-c4ccc5[nH]c([C@@H]6CCCN6C(=O)[C@H](O)c6ccccc6)nc5c4)o3)ccc2[nH]1` [JG2, (1R,1′R)-2,2′-(2,5-furandiylbis(1H-benzimidazole-5,2-diyl(2S)-2,1-pyrrolidinediyl))bis(2-oxo-1-phenylethanol)], the EC50 was below 4.57 nM.

On to `O=C([C@@H](O)c1ccccc1)N1CCC[C@H]1c1nc2cc(-c3ccc(-c4ccc5[nH]c([C@@H]6CCCN6C(=O)[C@@H](O)c6ccccc6)nc5c4)o3)ccc2[nH]1` [JG3, (1S,1′S)-2,2′-(2,5-furandiylbis(1H-benzimidazole-5,2-diyl(2S)-2,1-pyrrolidinediyl))bis(2-oxo-1-phenylethanol)], for which the EC50 was in the range of 4.57 to 99 nM.
